Laboratory results as given in patent US8288404B2, “Pyrrolidine GPR40 modulators” (Bristol-Myers Squibb Company, priority 2009, dated 2012).
Where a name gives a salt, the structure may show the parent alone.

These molecules were tested against T1, hGPR40 (Homo sapiens, UniProt O14842) (assay: FDSS-Based Intracellular Calcium Assay (Human GRP40 In Vitro assay)). Conditions: cell lines expressing GPR40, intracellular Ca2+ response, FDSS reader.
T1 construct: 3xFLAG; expressed in transfected cells
T1 sequence (O14842 whole entry): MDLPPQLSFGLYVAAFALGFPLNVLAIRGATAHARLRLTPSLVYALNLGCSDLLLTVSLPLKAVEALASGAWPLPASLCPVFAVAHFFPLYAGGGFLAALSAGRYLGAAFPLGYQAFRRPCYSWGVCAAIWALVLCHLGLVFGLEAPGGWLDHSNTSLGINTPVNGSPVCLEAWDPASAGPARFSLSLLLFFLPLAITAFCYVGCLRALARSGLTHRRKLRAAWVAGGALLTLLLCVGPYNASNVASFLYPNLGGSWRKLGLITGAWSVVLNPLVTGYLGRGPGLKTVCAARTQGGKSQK
Experimental: FDSS-Based Intracellular Calcium Assay
Cell lines expressing GPR40 are generated using the pDEST 3xflag gene expression system and are cultured in culture medium comprising the following components: F12 (Gibco #11765), 10% lipid deprived fetal bovine serum, 250 ug/ml zeocin and 500 ug/ml G418. To conduct the fluorescent imaging plate reader (FLIPR)-based calcium flux assay to measure intracellular Ca^2+ response, cells expressing GPR40 are plated on 384 well plates (BD Biocoat #356697) at a density of 20,000 cells/20 ul medium per well in phenol red and serum-free DMEM (Gibco #21063-029) and incubated overnight. Using BD kit #s 80500-310 or -301, the cells are incubated with 20 ul per well of Hank's buffered salt solution with 1.7 mM probenecid and Fluo-3 at 37° C. for 30 minutes. Compounds are dissolved in DMSO and diluted to desired concentrations with assay buffer and added to the cells as 3× solution (20 ul per well). Run fluorescence/luminescence reader FDSS (Hamamatsu) to read intracellular Ca^2+ response.
Table 1 below lists hGPR40 EC50 values measured for the following examples.

First: Cc1ccccc1Oc1ccc(N2CCC[C@H]2CC(=O)O)cc1F [Example 1, (S)-2-(1-(3-fluoro-4-(o-tolyloxy)phenyl)pyrrolidin-2-yl)acetic acid, TFA]
Second: Cc1ccccc1Oc1ccc(N2CCC[C@H]2CC(=O)O)cc1 [Example 5, (S)-2-(1-(4-(o-tolyloxy)phenyl)pyrrolidin-2-yl)acetic acid, HCl]
The EC50 of the first is 25-fold higher: 1630 nM for the first, 65 nM for the second.

First: Cc1cccc(C)c1Oc1ccc(N2CCC[C@@H]2CC(=O)O)cc1 [Example 4, (R)-2-(1-(4-(2,6-dimethylphenoxy)phenyl)pyrrolidin-2-yl)acetic acid, HCl]
Second: Cc1ccccc1Sc1ccc(N2CCC[C@H]2CC(=O)O)cc1 [Example 44, (S)-2-(1-(4-(o-tolylthio)phenyl)pyrrolidin-2-yl)acetic acid, TFA]
The EC50 of the first is 11-fold higher: 3800 nM for the first, 352 nM for the second. The second is the more potent here.

`Cc1ccccc1Cc1ccc(N2C[C@@H](C(F)(F)F)C[C@H]2CC(=O)O)cc1` [Example 40, 2-((2S,4S)-1-(4-(2-methylbenzyl)phenyl)-4-(trifluoromethyl)pyrrolidin-2-yl)acetic acid, TFA] and `Cc1ccccc1Oc1ccc(N2C[C@@H](C(F)(F)F)C[C@H]2CC(=O)O)cc1` [Example 41, 2-((2S,4S)-1-(4-(o-tolyloxy)phenyl)-4-(trifluoromethyl)pyrrolidin-2-yl)acetic acid, TFA] are within 1.5-fold of each other in EC50: 61 nM for the first, 56 nM for the second.

First: COc1ccc(Oc2ccc(N3C[C@@H](C(F)(F)F)C[C@H]3CC(=O)O)cc2)c(C)c1 [Example 50, 2-((2S,4S)-1-(4-(4-methoxy-2-methylphenoxy)phenyl)-4-(trifluoromethyl)pyrrolidin-2-yl)acetic acid, TFA]
Second: O=C(O)C[C@@H]1C[C@H](C(F)(F)F)CN1c1ccc(Oc2ccccc2C(F)(F)F)cc1 [Example 52, 2-((2S,4S)-4-(trifluoromethyl)-1-(4-(2-(trifluoromethyl)phenoxy)phenyl)pyrrolidin-2-yl)acetic acid, TFA]
The EC50 of the first is 5.5-fold lower: 55 nM for the first, 305 nM for the second.

Going from `CO[C@H]1C[C@@H](CC(=O)O)N(c2ccc(Oc3ccccc3C)cc2)C1` [Example 56, 2-((2S,4S)-4-methoxy-1-(4-(o-tolyloxy)phenyl)pyrrolidin-2-yl)acetic acid, TFA] to `COc1ccc(F)c(-c2cccc(Oc3ccc(N4CCC[C@H]4CC(=O)O)cc3)c2C)c1` [Example 68, 2-((2S)-1-(4-(2′-fluoro-5′-methoxy-2-methylbiphenyl-3-yloxy)phenyl)pyrrolidin-2-yl)acetic acid, TFA], the EC50 falls from 2320 nM to 314 nM (7.4-fold).

First: O=C(O)C[C@@H]1CCCN1c1ccc(Cc2ccc(OCc3ccccc3)cc2)cc1 [Example 58, (S)-2-(1-(4-(4-(benzyloxy)benzyl)phenyl)pyrrolidin-2-yl)acetic acid, TFA]
Second: Cc1ccc(COc2ccc(N3CCC[C@@H]3CC(=O)O)cc2)cc1 [Example 109]
The EC50 of the first is 13-fold lower: 331 nM for the first, 4340 nM for the second.

`Cc1ccccc1COc1cc(N2CCC[C@H]2CC(=O)O)ccn1` [Example 76, (S)-2-(1-(2-(2-methylbenzyloxy)pyridin-4-yl)pyrrolidin-2-yl)acetic acid, TFA] showed an EC50 of 4390 nM.
